# Measured values published in patent US20140080903A1, “APPLICATION OF ALPHA-MANGOSTIN IN PREPARATION OF MEDICAMENTS FOR ALZHEIMER'S DISEASE” (BOMAI LIMITED, priority 2011, published 2014).
# Like-named read-outs stand apart in the source and are kept apart here.
# Key:
# [1] = molecular target: T1, Aβ (Homo sapiens, UniProt P05067); test: Thioflavin-T fluorescence kinetics of Aβ aggregation; assay type: biochemical; settings: inhibitor:Aβ 1:1, 37° C.; for incubation time at which Aβ enters into accumulation: Aβ itself 4 hours
# T1 construct: purchased Sigma-Aldrich Corporation (China)
# T1 sequence (P05067 672-711 limits assumed): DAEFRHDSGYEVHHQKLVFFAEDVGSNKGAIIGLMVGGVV
# Method: Resveratrol, Curcumin and Propidium Iodide are the reported inhibitors on Aβ aggregation.
# 1 mg Aβ was dissolved in 500 μL HFIP, and put at room temperature for 120 minutes with intermittent shaking Then HFIP was dried by high pure nitrogen blowing and 100 μL DMSO was added to prepare an Aβ stock of 2.3 mM, which was stored at −20° C. DMSO was employed to dilute Aβ stock and 2 μL diluted solution was added to 16 μL PBS (0.215M, pH 8.0), which made a solution of Aβ at […], to which 2 μL α-Mangostin (25 μM) or other inhibitors, and blank solvent was added. Followed with incubation for 30 minutes, the mixture was added 80 μL Thioflavin-T(10 μM)/Glycine-NaOH (50 mM, pH8.5) and transferred to microplate for fluorescence intensity measurement. The parameters for measurement was set up as follow: instrument temperature of 37° C., shaking frequency of 240 rpm, radius of […], excitation wavelength of 446 nm, emission wavelength of 485 nm, bandwidth of 5 nm, and detection frequent of every 30 minute. Fluorescence intensity was recorded and statistically analyzed.
# [2] = molecular target: T2, Aβ oligomer (Homo sapiens, UniProt P05067); test: ELISA determination of Aβ oligomer (6E10/A11); assay type: biochemical
# T2 construct: purchased Sigma-Aldrich Corporation (China)
# T2 sequence (P05067 672-711 limits assumed): as above
# Method: 1 mg Aβ was dissolved in 500 μL HFIP at room temperature, of which 100 μL was transferred into a clean centrifuge tube (1.5 mL), where 900 μL sterile deionized water was added. Followed with centrifugation, the supernatant was moved to another clean centrifuge tube (1.5 mL) and HFIP was dried with high pure nitrogen blowing. Then the solution was stirred at 500 rpm for 48 hours at 22° C., using a micro stir bar, to get the solution of Aβ oligomer (1 μM). In inhibition experiment, α-Mangostin was added into the Aβ oligomer solution to obtain the final concentrations of 5 μM, 2 μM, 1 μM, 0.5 μM and 0.2 μM, respectively, and followed with another 12 hours stirring at 500 rpm and 22° C.α-Mangostin can also be added before stirring with Aβ oligomer for 12 hours.
# The incubated solution was applied into the 96-well microplate coated with 100 μL monoclonal anti-Aβ antibody (6E10). After incubation for 1 hour at 37° C., the wells were washed 3 times with washing buffer and 100 μL Oligomer-specific antibody (A11) was applied. After 5 times washing, 100 μL HRP-conjugated Goat anti-Rabbit IgG was applied. After another 5 times washing and 15 minutes colour developing, the optical density was recorded and statistically analyzed with plate reader.
# [3] = tested on: SAM-P8 mice; test: Morris water maze test in SAM-P8 mice; assay type: in vivo; settings: for distance: mid-dose group
# Method: Female SAM-P8 mice of 8-month old were employed as the model animal in the invention. All of the mice experimental procedures strictly followed the Guide for the Care and Use of Laboratory Animals as adopted and promulgated by the National Institutes of Health, USA, including sterile rearing environment, temperature controlled between 23° C. and 25° C., humidity controlled at 55±5%, and an interval of twelve hours light.
# The concentration and dose of α-Mangostin applied in the experiment were adjusted according to the different animal models. In molecular experiments, α-Mangostin was employed to calibrate the concentration of Aβ, prepared with the unit of molar concentration, and compared with the known Aβ aggregation inhibitor. In cellular experiments, α-Mangostin was also prepared with the unit of molar concentration, and provided in screening from the concentration of 50 pmol/L to 500nmol/L. In animal experiments, following the established practice, α-Mangostin was prepared with the unit of weight/animal weight, provided dosage range across three orders of magnitude of low dose (1 μg/kg), mid dose (10 μg/kg), high dose (100 μg/kg), and administrated orally (O.P., Solid granules).
# SAM-P8 mice were weight and divided into five groups randomly, including the model group, low-dose (1 μg/kg) , mid-dose (10 μg/kg) , high-dose ([…]) groups and positive control group treated with resveratrol (10 mg/kg). SAM-R1 mice were used as normal control. Reagents were mixed in food and applied to mice from the 3rd day after grouping (enter 6 months age) to the end of the test. Normal control group and model group were administrated with the same amount of food.
# Morris water maze test was carried out when SAM-P8 mice entered the age of 8 months. Water temperature in the experiment was controlled at 22±0.5° C. Mice were put into water with their faces towards the wall and backs towards water. The computer started automatically to record the trace and time (escape latency) of mice seeking the platform within 100 seconds. […] The tests were carried out twice every day, with an interval of 6 hours, and continued for 3 days. After place navigation test, the platform was removed. Mice were placed into water at a certain place of entry. The first time those mice reached the platform and the times that mice across the platform were recorded.
# [4] = tested on: primary neuronal cells; test: high content assay of neuroprotective effect against Aβ oligomer; assay type: cell-based, SD rat; settings: 50 nM α-Mangostin, 1 μM Aβ oligomer
# Method: Mammalian neurons in the experiment were prepared from embryonic day 15 SD rat embryos. A medium specific for neurons was employed, including neurobasal, 2% B27 and 1% glutamine that were all commercial and used following the instructions of the manufacturer.
# Embryonic day 15 SD rats are etherized and embryos were collected to a sterile dish with an anatomic buffer. Heads of the embryos were cut to a precooling dish with an anatomic buffer. A pair of straight forceps were inserted through eyes to fix the head, and another pincett was inserted along the head sagittal suture. The mening and skull were torn from front to back and to collect the brain. The hippocampus was peeled to the anatomic buffer in a precooling dish. The hippocampus was dissected by scissors disinfected with 75% alcohol. The minced tissues were collected into a marked 15 ml centrifuge tube and let them naturally precipitate to the bottom of the tube. The supernatant was discarded, and 2 mL 0.05% Trypsin was added. The tube was flipped several times and let it incubate for 5 minutes at 37° C. (shake evenly every two minutes). […]
# The live cell dye stock in CELLOMICS ® Multiparameter Cytotoxicity 2 Kit was diluted to its working concentration. […] The fluorescence intensity was measured with high content plate reader and analyzed by the software of Cell Health Profiling Bio Application.
# [5] = molecular target: Histamine H1-receptor (Homo sapiens, UniProt P35367); settings: generally; cited from earlier work
# Sequence of Histamine H1-receptor (P35367 whole entry, species assumed): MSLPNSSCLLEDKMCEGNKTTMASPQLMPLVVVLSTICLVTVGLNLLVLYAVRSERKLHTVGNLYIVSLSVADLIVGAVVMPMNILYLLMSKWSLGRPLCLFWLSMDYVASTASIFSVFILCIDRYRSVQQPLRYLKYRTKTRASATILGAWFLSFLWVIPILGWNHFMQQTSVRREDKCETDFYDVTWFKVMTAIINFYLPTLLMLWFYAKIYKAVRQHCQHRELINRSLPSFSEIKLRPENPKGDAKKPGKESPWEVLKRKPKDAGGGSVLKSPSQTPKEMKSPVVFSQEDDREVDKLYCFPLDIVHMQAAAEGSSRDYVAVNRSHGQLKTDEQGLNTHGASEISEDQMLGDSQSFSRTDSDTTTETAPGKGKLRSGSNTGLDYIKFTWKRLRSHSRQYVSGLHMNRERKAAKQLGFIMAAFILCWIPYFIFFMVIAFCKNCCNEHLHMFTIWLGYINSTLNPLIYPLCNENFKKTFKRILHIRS
# [6] = 5 μM α-Mangostin, mole ratio to Aβ oligomer 5:1
structure (smiles),measurement,setting,value
COc1cc(/C=C/C(=O)CC(=O)/C=C/c2ccc(O)c(OC)c2)ccc1O [curcumin],incubation time at which Aβ enters into plateau,[1],15 h
CC[N+](C)(CC)CCC[n+]1c(-c2ccccc2)c2cc(N)ccc2c2ccc(N)cc21.[I-].[I-] [propidium iodide],incubation time at which Aβ enters into plateau,[1],10 h
same,maximum fluorescence intensity compared with Aβ incubated itself,[1]; within 24 hours,10%
same,incubation time at which Aβ enters into accumulation,[1],6 h
COc1c(O)cc2oc3cc(O)c(CC=C(C)C)c(O)c3c(=O)c2c1CC=C(C)C [α-Mangostin],formation of Aβ oligomer inhibited to,[2]; [6],14.15±2.86%
same,formed Aβ oligomer disaggregated to,[2]; [6],39.58±3.25%
same,IC50,[2]; read-out: IC50 of disaggregation of formed Aβ oligomer,1590 ± 820 nM
same,IC50,[2]; read-out: IC50 of inhibition on Aβ oligomer formation,1090 ± 540 nM
same,escape latency,"[3]; day 2, mid-dose group 10 m/kg, oral in food, model 72.17±10.09 s",46.16 ± 5.51 s
same,escape latency,"[3]; from day 3, first value, mid-dose group 10 μg/kg, model 55.66±5.51 s",40.02 ± 4.16 s
same,distance,"[3]; from day 3, first value, model 773.06±65.54",438.78±46.02 cm
same,escape latency,"[3]; from day 3, second value, mid-dose group 10 μg/kg, model 39.93±4.12 s",19.05 ± 3.27 s
same,distance,"[3]; from day 3, second value, model 543.13±56.72",223.15±31.29 cm
same,mitochondrial membrane potential,[4]; model 70.25±6.97%,105.25±5.84%
same,cell membrane permeability of neuronal cells,[4]; model 173.75±6.82%,107.75±9.39%
same,working concentration as Histamine H1-receptor antagonist,[5],higher than 10^−6 mol/L
same,inhibition of Aβ aggregation,[1]; within 24 hours,almost completely inhibited
same,incubation time at which Aβ enters into accumulation,[1],no accumulation phase appeared within 24 hours
"Oc1ccc(C=Cc2cc(O)cc(O)c2)cc1 [resveratrol, reference compound]",escape latency and distance compared with model group,"[3]; from day 3, resveratrol 10 mg/kg positive control",notably decreased
same,incubation time at which Aβ enters into plateau,[1],15 h
